Values of other authors in patent US12295956B2, “Anti-viral compositions” (Calladine Pharmaceuticals Limited, priority 2018, dated 2025).

Columns and labels:
[1] = gentle heating to a pourable hot liquid

heat stability [1]: relatively heat stable
solubility in hydrophobic solvent systems (hydrophobic solvent systems): almost totally insoluble
solubility in water (water): poor solubility in water
Compound: Nc1nc2c(ncn2COCCO)c(=O)[nH]1 [Aciclovir, aciclovir]
